These results are taken from patent US6001997A, “Cephalosporins and homologues, preparations and pharmaceutical compositions” (priority 1990, dated 1999).

In one assay the test system is E. coli (NCTC 1048). The assay is described as follows: MIC values (minimum inhibitory concentration) against a sample E.coli organism. The assay is classed as cell-based. From the text: (§1) The following Examples illustrate the preparation of compounds of the invention and intermediates thereto.
A further assay concerns S. aureus (Oxford). As to the kind of experiment: MIC values (minimum inhibitory concentration) against a sample S.aureus organism. Format: cell-based. As to conditions: in vitro.
Source text: as §1

Where [1] appears, read: Escherichia coli, NCTC1048, in vitro, E. coli (NCTC 1048), read-out: MIC.
[2] abbreviates: Staphylococcus aureus, read-out: MIC.

One may read the MIC as the smallest concentration in the dilution series that meets the test's criterion for growth inhibition.

In brackets after ≈: the same amount, converted by molar mass. Structures can show the parent of a compound that is named as a salt. Where two headings read alike, the source gives them in different places.

With “sodium 7- [2- (2-aminothiazol-4-yl)-2- (Z)-methoxyimino-acetamido]-3- (tetrahydrofuran-2-yl) -1-carba-1-dethiaceph-3-em-4-carboxylate [Example 24]”, the minimal inhibitory concentration (MIC) against E. coli (NCTC 1048) (in vitro, E. coli (NCTC 1048)) was determined as 0.12 µg/mL; in the assay with S. aureus (Oxford), 1.00 µg/mL.

As for `Nc1nc(/C(=N/O)C(=O)N[C@@H]2C(=O)N3C(C(=O)O)=C(C4CCCO4)CS[C@H]23)cs1` (stereo partly drawn) [Example 5, (6R,7R)-7-[2-(2-Aminothiazol-4-yl)-2-(Z)-hydroxyiminoacet-amido]-3-[(RS)-tetrahydrofuran-2-yl]ceph-3-em-4-carboxylic acid], the MIC came to 0.5 µg/mL (≈ 1.14 µM) with E. coli (NCTC 1048) (setting [1]) and 0.25 µg/mL (≈ 0.569 µM) with S. aureus (Oxford) (setting [2]).

Turning to `CO/N=C(\C(=O)N[C@@H]1C(=O)N2C(C(=O)[O-])=C(C3CCCCO3)CS[C@H]12)c1csc(N)n1.[Na+]` (mixture of isomers) [Example 3, Sodium (6R,7R)-7-[2-(2-Aminothiazol-4-yl)-2-(Z)-methoxyiminoacetamido]-3-[(RS) -tetrahydropyran-2-yl]-ceph-3-em-4-carboxylate], the minimum inhibitory concentration (MIC) was determined as 2 µg/mL with E. coli (NCTC 1048) (Escherichia coli, NCTC1048) and 1 µg/mL in the assay with S. aureus (Oxford) (setting [2]).

Take `CO/N=C(\C(=O)N[C@@H]1C(=O)N2C(C(=O)[O-])=C(C3CC[C@@H](C)O3)CS[C@H]12)c1csc(N)n1.[Na+]` (mixture of isomers) [Example 27, Sodium (6R,7R)-7-12-(2-aminothiazol-4-yl)-2-(Z)-methoxy-iminoacetamidol-3-[(5R,2SR)-5-methyltetrahydrofuran-2-yl]ceph-3-em-4-carboxylate]: the MIC with E. coli (NCTC 1048) (in vitro, E. coli (NCTC 1048)) amounted to 4.00 µg/mL; against S. aureus (Oxford), 1.00 µg/mL.

`CO/N=C(\C(=O)N[C@@H]1C(=O)N2C(C(=O)O)=C([C@@H]3CCCO3)CS[C@H]12)c1csc(N)n1` [Example 7, Sodium (6R,7R)-7-[2-(2-aminothiazol-4-yl)-2-(Z)-methoxy-iminoacetamido]-3-[(S)-tetrahydrofuran-2-yl]ceph-3-em-4-carboxylate]: the MIC is 0.5 µg/mL with E. coli (NCTC 1048) (setting [1]) and 1 µg/mL in the assay with S. aureus (Oxford) (setting [2]).

`COC[C@@H]1CCC(C2=C(C(=O)O)N3C(=O)[C@@H](NC(=O)/C(=N\OC)c4csc(N)n4)[C@H]3SC2)O1` (stereo partly drawn) [Example 17, sodium (6R,7R)-7-[2-(2-aminothiazol-4-yl)-2-(Z)-methoxyiminoacetamido]-3-(5-methoxymethyltetrahydrofuran-2-yl)ceph-3-em-4-carboxylate]: the values for the MIC in the assay with E. coli (NCTC 1048) (setting [1]) and with S. aureus (Oxford) (setting [2]) were 1 µg/mL and 2 µg/mL, respectively.

On to `CO/N=C(\C(=O)N[C@@H]1C(=O)N2C(C(=O)O)=C([C@H]3CCCO3)CS[C@H]12)c1csc(N)n1` [Example 9, sodium (6R,7R)-7-[2-(2-aminothiazol-4-yl)-2-(Z)-methoxy-iminoacetamido]-3-[(R)-tetrahydrofuran-2-yl]ceph-3-em-4-carboxylate], for which the minimal inhibitory concentration (MIC) in the assay on E. coli (NCTC 1048) (setting [1]) turned out to be 1 µg/mL; with S. aureus (Oxford) (setting [2]) it was 0.5 µg/mL.

Regarding `CO/N=C(\C(=O)N[C@@H]1C(=O)N2C(C(=O)O)=C([C@@H]3CCCO3)CS[C@H]12)c1ccco1` [Example 28, Sodium (6R,7R)-7-[2-(furan-2-yl)-2-(Z)-methoxyimino-acetamido]-3-[(S)-tetrahydrofuran-2-yl]ceph-3-em-4-carboxylate], the MIC is > 32 µg/mL in the assay on E. coli (NCTC 1048) (setting [1]) and 0.5 µg/mL in the assay with S. aureus (Oxford) (setting [2]).

`CC/C=C(\C(=O)N[C@@H]1C(=O)N2C(C(=O)O)=C([C@@H]3CCCO3)CS[C@H]12)c1csc(N)n1` [Example 18, sodium (6R,7R)-7-[2-(2-aminothiazol-4-yl)-(Z)-pent-2-enamido]-3-[(S)-tetrahydrofuran-2-yl]ceph-3-em-4-carboxylate]: the figures for the MIC in the assay on E. coli (NCTC 1048) (setting [1]) and in the assay with S. aureus (Oxford) (setting [2]) were 16 µg/mL and 1 µg/mL, respectively.

On to `N[C@@H](C(=O)N[C@@H]1C(=O)N2C(C(=O)[O-])=C([C@@H]3CCCO3)CS[C@H]12)c1ccc(O)cc1.[Na+]` [Example 22, Sodium (6R,7R)-7-[(R)-2-Amino-2-(4-hydroxyphenyl)acetamido]-3-[(S)-tetrahydrofuran-2-yl]ceph-3-em-4-carboxylate], for which the minimum inhibitory concentration (MIC) stood at 8 µg/mL in the assay with E. coli (NCTC 1048) (Escherichia coli, NCTC1048) and 0.25 µg/mL in the assay on S. aureus (Oxford) (setting [2]).

For the compound `Nc1nc(/C(=N/OCC(=O)O)C(=O)N[C@@H]2C(=O)N3C(C(=O)O)=C(C4CCCO4)CS[C@H]23)cs1` (stereo partly drawn) [Example 21, (6R,7R)-7-[2-(2-aminothiazol-4-yl)-2-(Z)-carboxymethoxy-iminoacetamido]-3-[(RS)-tetrahydrofuran-2-yl]-ceph-3-em-4-carboxylic acid, disodium salt], the results for the minimal inhibitory concentration (MIC) in the assay with E. coli (NCTC 1048) (setting [1]) and in the assay with S. aureus (Oxford) (setting [2]) were 0.25 µg/mL and 8 µg/mL, respectively.

As for `CO/N=C(\C(=O)N[C@@H]1C(=O)N2C(C(=O)O)=C(C3CCCO3)CS[C@H]12)c1csc(N)n1` (stereo partly drawn) [Example 1, Sodium (6R,7R)-7-[2-(2-Aminothiazol-4-yl)-2-(Z)-methoxy-iminoacetamido]-3-[(RS)-tetrahydrofuran-2-yl]ceph-3-em-4-carboxylate], the MIC was 0.5 µg/mL with E. coli (NCTC 1048) (setting [1]) and 1 µg/mL in the assay on S. aureus (Oxford) (setting [2]).

Regarding `CO/N=C(\C(=O)N[C@@H]1C(=O)N2C(C(=O)O)=C(C3CCOC3)CS[C@H]12)c1csc(N)n1` (some centres unmarked) [Example 13], the MIC in the assay with E. coli (NCTC 1048) (setting [1]) came out at 1 µg/mL (≈ 2.21 µM); with S. aureus (Oxford) (setting [2]), 4 µg/mL (≈ 8.82 µM).
